Source: patent US8613909B2, “Cinnamic acid-based oligomers and uses thereof” (Virginia Commonwealth University, priority 2008, dated 2013)

Assays:
[1] = tested on: NFκB in Calu-3 human bronchial epithelial cells; assay: TNFα-dependent NFκB-Luc reporter repression in Calu-3 cells; format: cell-based
Protocol: Anti-inflammatory activity of each of the oligomers was determined using Calu-3 human bronchial epithelial cells (American Type Culture Collection; ATCC), from repression of the inflammatory transcription factor NFκB. The Calu-3 cells of 0.5×10^6 cells/cm^2 in 12-well plates were cultured for 24 h and then, transfected with 0.6 μg luciferase (Luc)-tagged reporter plasmid construct of NFκB (pNFκB-Luc) for another 24 h using the Effectene reagents (Qiagen) under the protocol optimized in-house. On day 3, the transfected Calu-3 cells were stimulated for 6 h with 30 ng/ml human tumor necrosis factor α (TNF α; BD Biosciences) in the presence of each oligomer at 0-100 μM in culture. Then, the Calu-3 cells were lysed, after which the Luc activities were measured using 20/20n luminometer (Turner BioSystems). The cellular NFκB-Luc activity was expressed in relative light unit/mg protein, normalized by the total protein measured by the BCA assay (Pierce Biotechnology). A fold-induction of such a normalized NFκB-Luc activity relative to the transfection control was derived for treatment group comparison; this accommodated inter-transfection efficiency differences.

[2] = Chemical antioxidant assay (ABTS oxidation by metmyoglobin/hydrogen peroxide); conditions: room temperature, absorbance at 750 nm in first 5 min; read-out: AOC50 (half maximal anti-oxidative concentration)
Protocol: Anti-oxidative activity of the oligomers was determined at room temperature using the chemical antioxidant assay kit (Cayman Chemical Co.) in a 96-well plate format, in accord with the manufacturer's protocol. The kit has been validated in-house with respect to assay precision and accuracy. Oxidative reaction of ABTS (2,2′-azino-di-[3-ethylbenzthiazoline sulphonate]) to its oxidative product, ABTS•+, by metmyoglobin and 84 μM hydrogen peroxide were monitored for 20 min in the presence of each oligomer at 0-100 μM. The absorbance at 750 nm due to ABTS•+ generation was measured using the microplate reader. Initial linear rate of oxidation was assessed with the absorbance produced for the first 5 min. The half maximal anti-oxidative concentration (AOC50) values were derived, assuming the sigmoidal concentration-dependence of the initial oxidation rate in the logistic function equation.

Row | Compound | repression of NFκB-Luc activity ([1]; by 100 μM) | EC50 [2] [µM] | repression of TNFα-induced NFκB-Luc activity ([1]; 5 μM) [%]
1 | O=C(O)/C=C/c1ccc(O)c(O)c1 [CA, caffeic acid] | no appreciable repression | 16.8 ± 1.6 | –
2 | CCC(=O)O[C@]1(C(=O)SCF)[C@H](C)C[C@H]2[C@@H]3C[C@H](F)C4=CC(=O)C=C[C@]4(C)[C@@]3(F)[C@@H](O)C[C@@]21C [FP, fluticasone propionate] | – | – | 100
